# Results published in PubChem BioAssay AID652210 (Johns Hopkins Ion Channel Center, 2013).
# Activity calls are given as the source filed them.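 Rule for the calls: active = over half block of KCNK9 potassium channel current at 10 µM; inactive = the rest.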
# Biological target: Potassium channel subfamily K member 9 (Homo sapiens) (UniProt Q9NPC2)
# Assay: KCNK9 (TASK3) current inhibition by patch clamp, SAR follow-up, selectivity assay for TASK1 (KCNK3) inhibitor project, cell-based, automated electrophysiology (AID 652210)
# Settings: HEK293 inducible KCNK9, QPatch automated patch clamp
# Sequence of Potassium channel subfamily K member 9 (Homo sapiens) (Q9NPC2 whole entry, looked up): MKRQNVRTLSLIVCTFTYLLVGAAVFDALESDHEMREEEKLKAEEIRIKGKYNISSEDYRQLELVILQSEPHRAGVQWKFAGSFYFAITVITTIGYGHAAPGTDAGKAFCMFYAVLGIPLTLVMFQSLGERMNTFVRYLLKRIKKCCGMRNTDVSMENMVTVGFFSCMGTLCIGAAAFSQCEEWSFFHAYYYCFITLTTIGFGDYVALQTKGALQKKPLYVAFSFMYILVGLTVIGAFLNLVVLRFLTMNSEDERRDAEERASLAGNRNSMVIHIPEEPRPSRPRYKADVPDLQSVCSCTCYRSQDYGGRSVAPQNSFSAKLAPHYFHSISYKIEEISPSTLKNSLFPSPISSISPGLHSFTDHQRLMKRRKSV
row,Structure (SMILES),IC50
1,Cc1cccc(C(=O)Nc2cccc(NC(=O)c3ccncc3)c2)c1,inactive
2,Cc1cccc(C(=O)Nc2cccc(NC(=O)c3ccccc3)c2)c1,690 nM
